Experiments:
[1] = test system: circulating suPAR; assay: Serum suPAR in FSGS-CT cohort by treatment arm; format: in vivo, human; settings: for change in serum suPAR level from baseline to 26 weeks: FSGS-CT patients, MMF arm is MMF/dexamethasone
Protocol: (§1) To explore the effect of treatment on suPAR levels in the circulation, samples were analyzed in patients who were randomly assigned to either the CSA or MMF/dexamethasone arm of the trial. At baseline, there was no difference between the two treatment arms in age at sampling, age at disease onset, gender, race, proteinuria, serum albumin, serum creatinine, or eGFR (FIG. 7) as well as circulating suPAR levels by univariate analysis. […] When examining the alteration from baseline to 26 weeks, suPAR level was increased in CSA arm, but decreased in MMF arm and the changes in suPAR levels between the two arms were significant (P<0.05).
FSGS-CT is a randomized controlled study that compared the efficacy of cyclosporine (CSA) to the combination of mycophenolate mofetil (MMF) and dexamethasone. Key inclusion criteria were age 2-40 years, eGFR>40 ml/min per 1.73 m^2, biopsy-proven FSGS, and resistance to corticosteroid therapy. Exclusion criteria included secondary FSGS, obesity, or prior experimental therapy. All subjects received lisinopril or losartan in those who were intolerant of angiotensin converting enzyme inhibitor. Subjects were treated for 52 weeks. The primary outcome was normalization of proteinuria defined as a urine protein:creatinine ratio (Up/c)<0.2 in a first morning urine sample after 52 weeks of active treatment with the study medication(s). The main secondary outcome was based on the level of proteinuria at 78 weeks, six months after discontinuation of the study drugs. Subjects were seen 11 times during the treatment period and, at each visit, blood pressure was measured and blood and urine were obtained to determine serum creatinine, eGFR, albumin, cholesterol concentration, and proteinuria (Gipson et al., Kidney Int'l 80:868-878, 2011). The serum samples collected at baseline (W01) and 26 weeks (W26) on treatment (n=35 in each arm) were retrieved from the NIDDK Biorepository for suPAR measurement.
(§2) The measurement of serum suPAR was performed using a Quantikine human uPAR immunoassay kit (R&D Systems).

[2] = Proteinuria (Up/c) and serum creatinine in FSGS-CT cohort by treatment arm; format: in vivo, human
Protocol: as §1
FSGS-CT is a randomized controlled study that compared the efficacy of cyclosporine (CSA) to the combination of mycophenolate mofetil (MMF) and dexamethasone. Key inclusion criteria were age 2-40 years, eGFR>40 ml/min per 1.73 m^2, biopsy-proven FSGS, and resistance to corticosteroid therapy. Exclusion criteria included secondary FSGS, obesity, or prior experimental therapy. […] Subjects were seen 11 times during the treatment period and, at each visit, blood pressure was measured and blood and urine were obtained to determine serum creatinine, eGFR, albumin, cholesterol concentration, and proteinuria (Gipson et al., Kidney Int'l 80:868-878, 2011). […]

[3] = test system: circulating suPAR; assay: Circulating suPAR in PodoNet cohort by medication; format: in vivo, human; settings: medication at time of blood sampling
From the text: In contrast to FSGS-CT, where patients were randomly assigned to either CSA or MMF therapy, treatment in PodoNet was at the discretion of the attending physicians. For the purpose of this analysis, patients were grouped according to the medication they received at the time of blood sampling: MMF or a calcineurin inhibitor. […] Overall, there was no significant difference between the two groups based on their demographic features or laboratory measurements (e.g., proteinuria, serum albumin, eGFR, and serum creatinine).
PodoNet is a consortium for clinical, genetic, and experimental study of steroid-resistant nephrotic syndrome (SRNS). The inclusion criteria are children (age 0-18 years old) with SRNS based on management protocols at the participating medical centers and adults with familial SRNS. Patients who were included into this study had biopsy proven FSGS (n=94). The treatment of subjects was clinically determined and managed by their attending physician.
as §2

[4] = cited from earlier work
[5] = Retrospective study of recurrent or de novo FSGS after renal transplantation: renal parameters pre-post treatment; format: in vivo, human; settings: for Mean Foot Process Effacement, Mean Post ± SD / Proteinuria, Mean Post ± SD / Serum Creatinine, Mean Post ± SD: post-treatment; for Mean Foot Process Effacement, Mean Pre ± SD / Proteinuria, Mean Pre ± SD / Serum Creatinine, Mean Pre ± SD: pre-treatment
Protocol: Treatment with plasmapheresis (PXP) started at the time of FSGS recurrence or de novo manifesting by the onset or worsening of proteinuria. Subjects completed a median of 21 plasmapheresis sessions (IQR: 10-23). Twelve subjects were refractory to plasmapheresis and received adjunctive rituximab infusion. Eight (32%) subjects had complete remission, and an additional 12 (48%) individuals achieved partial remission. With treatment (Table 5), the overall mean serum creatinine improved from 3.1 mg/dl±2.3 mg/dl to 2.1 mg/dl±1.2 mg/dl (P=0.07), and the mean eGFR improved from 35.6 ml/min±19.4 ml/min to 46.0 ml/min±24.3 ml/min per 1.73 m^2 (P=0.01). Additionally, among responders the serum creatinine declined further from 3.1 mg/dl±2.5 mg/dl to 1.9 mg/dl±0.6 mg/dl (P=0.48).
We conducted a retrospective observational study of all adult renal transplant recipients who underwent renal transplantation between Jan. 1, 2003 to Dec. 31, 2011, and developed recurrent or de novo FSGS after kidney transplantation at a single tertiary hospital. We identified 105 renal transplant recipients aged 18 years and older. Ninety-three had native kidney biopsy-proven FSGS; 12 having a probable FSGS diagnosis. Twenty-five individuals developed de novo FSGS (n=4) and recurrent FSGS (n=21) following renal transplantation. Recurrent FSGS was defined by the presence of proteinuria (more than 1 g/24 hours) in individuals who were anuric prior to renal transplantation ([…]) or worsening proteinuria among those who were not anuric prior to renal transplantation (n=15). De novo FSGS was defined as the new onset of proteinuria following renal transplantation in a recipient whose primary cause of ESRD was not attributed to FSGS. The diagnosis was confirmed by the presence of podocyte foot process effacement on the allograft biopsy obtained prior to or within 14 days of treatment commencement. The Johns Hopkins University School of Medicine Institutional Review Board approved this study.
Socio-demographic and clinical data were abstracted from patient medical records using double data entry from the time of renal transplantation to three years following renal transplantation or the last available clinical follow-up. Donor clinical characteristics collected included donor vital status, relatedness to the recipient, and ABO-compatibility with recipient. Recipient clinical characteristics included age at FSGS diagnosis, primary cause of ESRD, number of prior renal transplantations, duration among those receiving dialysis, serum creatinine and proteinuria defined by urine protein-to-creatinine ratio. Glomerular filtration rate (eGFR) was estimated using the CKD-Epi equation which adjusts for age, gender, and race (Levey et al., Ann. Intern. Med. 150:604-612, 2009). Recipients were treated with plasmapheresis. Those with persistently significant proteinuria were also given one or two rituximab infusions. Complete response was defined by a decrease in proteinuria to below 1 g/g upon completion of the treatment course and/or on the last available quantification of proteinuria. Partial response to therapy was defined as a decline in proteinuria at the end of treatment by 50% from the peak proteinuria level, but with proteinuria remaining 1 g/g or greater at the end of treatment. Renal histopathology was assessed by a renal pathologist using light microscopy, immunofluorescence and electron microscopy. The degree of podocyte foot process effacement was based upon biopsy reports as well as secondary assessments of the electron microscopy by a second renal pathologist blinded to the original biopsy report and the recipient's outcome. These two assessments were then averaged to obtain the mean podocyte foot process effacement, which was categorized as <25% (mild), 25%-74% (moderate), and 75% or greater (severe). Baseline electron microscopy results were obtained from renal biopsies performed prior or shortly after the initiation of therapy. […]

## COc1c(C)c2c(c(O)c1C/C=C(\C)CCC(=O)OCCN1CCOCC1)C(=O)OC2 [MMF, mycophenolate mofetil]
[1]
  change in serum suPAR level from baseline to 26 weeks: decreased
[1]; listed as mycophenolate mofetil
  change in serum suPAR level from baseline to 26 weeks: decreased significantly
[1]; FSGS-CT, MMF-treated patients, mean ± SEM (±264), P<0.01
  serum suPAR level after treatment: 4113 pg/mL
[1]; FSGS-CT, MMF-treated patients, mean ± SEM (±292)
  serum suPAR level before treatment: 5064 pg/mL
[2]; P<0.001
  decrease in serum creatinine from baseline to 26 weeks, MMF arm compared to CSA arm: significantly greater decrease
[2]; P<0.05
  decrease in Up/c from baseline to 26 weeks, MMF arm compared to CSA arm: significantly greater decrease
[3]
  circulating suPAR level, patients who received the medication versus those who did not: significantly lower

## O=C[C@H](O)[C@@H](O)[C@@H](O)[C@H](O)CO [galactose]
[4]; dialysis-dependent patient (Savin et al., 2008)
  proteinuria outcome: no improvement of proteinuria
[4]; oral galactose, patient resistant to corticosteroids, immunosuppression and plasmapheresis (De Smet et al., 2009)
  nephrotic syndrome outcome: remission for more than two years

## PXP + rituximab: plasmapheresis (PXP) with adjunctive rituximab infusion in subjects refractory to plasmapheresis
[5]; overall, n = 12
  Proteinuria, Most recent: 7 ± 12.7 g/g
  Proteinuria, Peak: 12.5 ± 12.7 g/g
  Proteinuria, Mean Post ± SD: 6.6 ± 12.5 g/g
  Serum Creatinine, Mean Post ± SD: 2.1 ± 0.88 mg/dL
  Proteinuria, Mean Pre ± SD: 4.4 ± 3.1 g/g
  Serum Creatinine, Mean Pre ± SD: 3 ± 2.7 mg/dL
[5]; overall, n = 10
  Mean Foot Process Effacement, Mean Post ± SD: 21 ± 27%
  Mean Foot Process Effacement, Mean Pre ± SD: 49 ± 32%
[5]; responders, n = 9
  Proteinuria, Last: 1.7 ± 1.2 g/g
  Proteinuria, Peak: 7.6 ± 4.9 g/g
  Proteinuria, Mean Post ± SD: 1.9 ± 1.4 g/g
  Proteinuria, Mean Pre ± SD: 4.1 ± 3.4 g/g
[5]; responders, n = 7
  Mean Foot Process Effacement, Mean Post ± SD: 14 ± 14%
  Mean Foot Process Effacement, Mean Pre ± SD: 34 ± 27%
[5]; responders, n = 12
  Serum Creatinine, Mean Post ± SD: 2.1 ± 0.7 mg/dL
  Serum Creatinine, Mean Pre ± SD: 3 ± 2.96 mg/dL

From patent US9867923B2, “Reducing soluble urokinase receptor in the circulation” (University of Miami, priority 2011, dated 2018)
